# Assay results: patent US20100081632A1, “High-content and high throughput assays for identification of lipid-regulating pathways, and novel therapeutic agents for lipid disorders” (Odyssey Thera, Inc., priority 2008, published 2010)
# Legend:
# HepG2 cells = experiment: LDL uptake in HepG2 cells (human LDL conjugated to DyLight 549); format: cell-based; settings: for x-fold increase (hepatic LDL uptake): HepG2; for % Control (Table 5, titled LDL uptake in Hepg2 cells): values repeat Table 2
# Text: The assay uses human LDL conjugated to DyLight™ 549 as a fluorescent probe for detection of LDL uptake into HepG2 cells.
# We assessED whether compounds that inhibit the PCSK9/LDLr assay would have activity on LDL uptake and metabolism in a relevant cell type. PCSK9 is thought to be a negative regulator of LDLr. Thus, we predicted that compounds inhibiting the PCSK9 PCA signal would increase LDL receptor expression and LDL uptake. An assay using human LDL conjugated to DyLight™ 549 as a fluorescent probe for detection of LDL uptake into cultured human hepatocytes. A separate assay, using an LDL receptor-specific polyclonal antibody and a DyLight™ 488-conjugated secondary antibody, was also performed to localize LDL receptors
# Quantitation of the increased LDL uptake of these and other kinase inhibitors targeting Akt, mTOR, p38, GSK3 and VEGF is shown in Table 4.
# PCSK9/LDLR complex = experiment: PCSK9/LDLR protein complementation assay (PCA) in transfected HEK293 cells; format: cell-based, human
# Experimental: In one of the embodiments of the invention, the cell-based assay consists of transfected cDNAs encoding full-length PCSK9 and LDL receptor, each sequence linked in-frame to rationally designed fragments of a variant of green fluorescent protein. These two plasmid constructs were co-expressed in human HEK cells plated in 384-well poly-lysine coated plates. After 24-48 hours of incubation, drugs (or vehicle controls) were added to the media, and the existence and localization of PCSK9/LDL receptor complexes was quantified on an Opera automated confocal fluorescence microscopy platform (Perkin Elmer). Images were subjected to automated image analysis, and results quantified and subjected to statistical analysis.
# HEK 293T cells were seeded in normal growth media containing DMEM and 10% FBS at 1.5×10^4 in PDL-coated 96-well plates 24 hours prior to transfection. Cells were transfected with 50 ng of each construct DNA per well with Fugene 6, using conditions recommended by the manufacturer. Cells were allowed to express the construct pairs for 24- or 48 h, then the cells were simultaneously fixed and stained with either a 1:300 dilution of Hoescht 33342 (Molecular Probes, Eugene, Oreg.) or a 1:1000 dilution of Draq5 (Biostatus, Shepshed, Leicestershire, U.K.) in 4% formaldehyde for 15 minutes at room temperature. The cells were washed to remove fixative, and overlaid with a small volume of Hank's Buffered Salt Solution. Images were acquired on a Discovery-1 (Molecular Devices) epifluorescence microscope using the 20× objective, and DAPI and FITC filter sets. (with excitation at 350 and 488 nm wave lengths) or on an Opera (Perkin Elmer) confocal microscope using the 20× water objective with the following excitation and emission settings: Ex 488 nm/Em 535 nm (YFP) and Ex 635 nm/Em 640 nm (Draq5).
# To test for in vitro PCSK9 function and activity, we developed a protein complementation assay (PCA) with PCSK9-IFP2 and the LDL-IFP1 receptor (PCSK9/LDLR). Expression of wild type PCSK9-IFP2 in transfected HEK293 cells was confirmed by Western blot using an antibody against YFP (FIG. 2). Cotranfection of HEK cells with increasing ratios of PCSK9-IFP2 and LDLR-IFP1 DNA constructs results in increased PCA signal (FIG. 3) but not when each construct is expressed alone. The intracellular localization of the wild-type PCSK9-IFP2/LDLR-IFP1 PCA interaction is similar to the known localization of wild type PCSK9 in the endoplasmic reticulum (ER) and post-ER compartments in various cell types (20, 21). The PCA signal for the PCSK9-IFP2/LDLR-IFP1 pair appears to be localized to multiple intracellular trafficking sites including the ER, endosomes and the cell surface.
# In order to test the viability of using the PCSK9-IFP2/LDLR-IFP1 PCA as a drug discovery tool, we tested a drug plate containing 50 known drugs at 3 doses in the assay (Table 10) as well as several protein kinase inhibitors (representative compounds are depicted in Table 11). […] We observed the following effects of known compounds on the PCSK9/LDLR complex:
# A collection of small molecular weight compounds was screened. […] To expand on this observation, we characterized the effects of a larger panel of kinase inhibitors on the PCSK9/LDLr complex. 47 compounds representing a broad range of known receptor tyrosine and serine-threonine kinase inhibitors were assessed (table 2). A subset was identified that had inhibitory effects on the PCSK9/LDLr complex (degree of assay inhibition relative to control is indicated by “% control”, Table 2).
molecule,measurement,setting,value
Cc1ccc(NC(=O)c2ccc(CN3CCN(C)CC3)cc2)cc1Nc1nccc(-c2cccnc2)n1 [Imatinib],effect on LDL uptake (in words),"HepG2 cells; HepG2, 10 μM",dramatic increase in LDL uptake
same,x-fold increase (LDL uptake in Hepg2 cells),HepG2 cells; dose 3 μM,2.4 x-fold
same,x-fold increase (LDL uptake in Hepg2 cells),HepG2 cells; dose 10 μM,5.4 x-fold
same,x-fold increase (hepatic LDL uptake),HepG2 cells; dose 10 µM,5.4 x-fold
same,"% Control (Table 5, titled LDL uptake in Hepg2 cells)",HepG2 cells; dose 10 μM,55%
same,x-fold increase (hepatic LDL uptake),HepG2 cells; dose 3 µM,2.4 x-fold
same,effect on formation of PCSK9/LDLR complexes / PCA signal (in words),PCSK9/LDLR complex,inhibit the formation of PCSK9/LDLR complexes
same,% Control (PCSK9/LDLr PCA),PCSK9/LDLR complex; dose 10 μM,55%
O=C1C(SCCO)=C(SCCO)C(=O)N1c1ccc(-c2ccccc2)cc1 [PM20],% Control (PCSK9/LDLr PCA),PCSK9/LDLR complex; dose 10 μM,53%
COc1cc2ncnc(Nc3ccc(F)c(Cl)c3)c2cc1OCCCN1CCOCC1 [Gefitinib],% Control (PCSK9/LDLr PCA),PCSK9/LDLR complex; dose 100 μM,53%
"CC[n+]1c(/C=C/N(C)c2ccccc2)n(-c2ccccc2)c2ccc(-c3nc4ccccc4s3)cc21 [Akt Inhibitor IV, 5-(2-Benzothiazolyl)-3-ethyl-2-[2-(methylphenylamino)ethenyl]-1-phenyl-1H-benzimidazolium iodide]",% Control (PCSK9/LDLr PCA),PCSK9/LDLR complex; dose 1 μM,65%
same,% Control (PCSK9/LDLr PCA),PCSK9/LDLR complex; dose 3 μM,40%
same,% Control (PCSK9/LDLr PCA),PCSK9/LDLR complex; dose 10 μM,56%
CC(C)[C@H](CO)Nc1nc(Nc2cccc(Cl)c2)c2ncn(C(C)C)c2n1 [Purvalanol A],"% Control (Table 5, titled LDL uptake in Hepg2 cells)",HepG2 cells; dose 15 μM,52%
same,% Control (PCSK9/LDLr PCA),PCSK9/LDLR complex; dose 15 μM,52%
CO[C@H]1C[C@@H]2CC[C@@H](C)[C@@](O)(O2)C(=O)C(=O)N2CCCC[C@H]2C(=O)O[C@H]([C@H](C)C[C@@H]2CC[C@H](n3cnnn3)[C@H](OC)C2)CC(=O)[C@H](C)/C=C(\C)[C@@H](O)[C@@H](OC)C(=O)[C@H](C)C[C@H](C)/C=C/C=C/C=C/1C [Zotarolimus],% Control (PCSK9/LDLr PCA),PCSK9/LDLR complex; dose 10 μM,37%
CN(C)CCCN1c2ccccc2CCc2ccccc21 [Imipramine],% Control (PCSK9/LDLr PCA),PCSK9/LDLR complex; dose 150 μM,46%
CN(C)CCC=C1c2ccccc2CCc2ccccc21 [Amitryptyline],% Control (PCSK9/LDLr PCA),PCSK9/LDLR complex; dose 100 μM,48%
CC/C(=C(\c1ccccc1)c1ccc(OCCN(C)C)cc1)c1ccccc1 [Tamoxifen],% Control (PCSK9/LDLr PCA),PCSK9/LDLR complex; dose 30 μM,53%
CNC(=O)c1cc(Oc2ccc(NC(=O)Nc3ccc(Cl)c(C(F)(F)F)c3)cc2)ccn1 [Sorafenib],"% Control (Table 5, titled LDL uptake in Hepg2 cells)",HepG2 cells; dose 3 μM,57%
same,"% Control (Table 5, titled LDL uptake in Hepg2 cells)",HepG2 cells; dose 10 μM,58%
same,% Control (PCSK9/LDLr PCA),PCSK9/LDLR complex; dose 3 μM,57%
same,% Control (PCSK9/LDLr PCA),PCSK9/LDLR complex; dose 10 μM,58%
CN[C@@H]1C[C@H]2O[C@@](C)([C@@H]1OC)n1c3ccccc3c3c4c(c5c6ccccc6n2c5c31)C(=O)NC4 [Staurosporine],% Control (PCSK9/LDLr PCA),PCSK9/LDLR complex; dose 1 μM,34%
COc1ccnc(C[S+]([O-])c2nc3ccc(OC(F)F)cc3[nH]2)c1OC (stereo not drawn) [Pantoprazole],% Control (PCSK9/LDLr PCA),PCSK9/LDLR complex; dose 200 μM,36%
"Cc1ccc([N+](=O)[O-])cc1S(=O)(=O)N(C)/N=C/c1cnc2ccc(Br)cn12 [PI 3-Kalpha Inhibitor VIII, N-((1E)-(6-Bromoimidazo[1,2-a]pyridin-3-yl)methylene)-Nprime-methyl-Ndoubleprime-(2-methyl-5-nitrobenzene)sulfonohydrazide]","% Control (Table 5, titled LDL uptake in Hepg2 cells)",HepG2 cells; dose 1 μM,44%
same,"% Control (Table 5, titled LDL uptake in Hepg2 cells)",HepG2 cells; dose 3 μM,39%
same,% Control (PCSK9/LDLr PCA),PCSK9/LDLR complex; dose 1 μM,44%
same,% Control (PCSK9/LDLr PCA),PCSK9/LDLR complex; dose 3 μM,39%
same,% Control (PCSK9/LDLr PCA),PCSK9/LDLR complex; dose 10 μM,29%
Indirubin-3′-Monoxime,"% Control (Table 5, titled LDL uptake in Hepg2 cells)",HepG2 cells; dose 10 μM,64%
same,% Control (PCSK9/LDLr PCA),PCSK9/LDLR complex; dose 10 μM,64%
C=C1[C@@H](C)[C@H]2[C@H](Cc3ccccc3)NC(=O)[C@]23OC(=O)/C=C/[C@H](O)CCC[C@@H](C)C/C=C/[C@H]3[C@@H]1O [Cytochalasin B],% Control (PCSK9/LDLr PCA),PCSK9/LDLR complex; dose 2 μM,53%
